From publication PMC9220351, “Evaluation of a Conformationally Constrained Indole Carboxamide as a Potential Efflux Pump Inhibitor in Pseudomonas aeruginosa” (Antibiotics, 2022)
≈ marks a conversion by molar mass, not a printed value. Read-outs that look alike come from different tables or passages of the source.

Assays:
[1] = tested on: P. aeruginosa K1455 (mexAB-oprM overexpressed); experiment: microbe, parasite or virus in culture; assay type: cell-based, Pseudomonas aeruginosa; details: for MIC: Pseudomonas aeruginosa, read-out: MICs K1455 (↑mexAB-oprM); for MIC Ratios K1455 (↑mexAB-oprM)/K3698 (∆oprM): effect of pump deletion
Description: (§1) P. aeruginosa ATCC 27853 was obtained from the American Type Culture Collection (ATCC; Manassas, VA, USA). P. aeruginosa multidrug-resistant isolates were obtained from the CDC and FDA Antibiotic Resistance Isolate Bank (Atlanta, GA, USA). P. aeruginosa DA7232 (gyrA-T83I, parC-S80L) was a kind gift from Prof. Dan I. Andersson, Uppsala University, Uppsala, Sweden, and has been characterized elsewhere. P. aeruginosa strains K767 (WT), K1455 (mexAB-oprM overexpressed), K2415 (mexXY-oprM overexpressed), and K3698 (oprM∆) were obtained from Prof. Keith Poole, Queen’s University, Kingston, Ontario, Canada and have been characterized elsewhere. Bacterial cells were grown in cation-adjusted Mueller Hinton (CAMH) media, brain heart infusion broth (BHI), or tryptic soy agar (TSA) plates were all obtained from Becton, Dickinson, and Company (BD; Franklin Lakes, NJ, USA). Aztreonam, ceftazidime, moxifloxacin, levofloxacin, minocycline, tigecycline, chloramphenicol, nitrocefin, and imipenem were purchased from TOKU-E (Bellingham, WA, USA). Azithromycin was purchased from Tokyo Chemical Industry (Portland, OR, USA). Cotrimoxazole was purchased from Toronto Research Chemicals (Toronto, ON, Canada). Doxycycline and polymyxin B were purchased from Sigma-Aldrich (St. Louis, MO, USA). Ethidium bromide (EtBr) and glucose were purchased from VWR (Radnor, PA, USA). MC-04,124 and TXA01182 were synthesized at TAXIS Pharmaceuticals. Carbonyl cyanide 3-chlorophenylhydrazone (CCCP) was purchased from Enzo Life Sciences (Farmingdale, NY, USA). DiOC2 (3) and propidium iodide were obtained from Thermo Fisher Scientific (Waltham, MA, USA).
(§2) MIC assays were performed as described previously.

[2] = tested on: P. aeruginosa K767 (WT); experiment: MIC assay, strain K767; assay type: cell-based, Pseudomonas aeruginosa; details: antibiotic alone; for MIC: Pseudomonas aeruginosa, read-out: MICs K767 (WT)
Description: as §1, §2

[3] = tested on: P. aeruginosa K3698 (∆oprM); experiment: MIC / potentiation assay, strain K3698; assay type: cell-based, Pseudomonas aeruginosa; details: for MIC: Pseudomonas aeruginosa, read-out: MICs K3698 (∆oprM)
Description: as §1, with “Aztreonam, ceftazidime, moxifloxacin, levofloxacin, minocycline, tigecycline, chloramphenicol, nitrocefin, and imipenem were purchased from TOKU-E (Bellingham, WA, USA).” left out, “Cotrimoxazole was purchased from Toronto Research Chemicals (Toronto, ON, Canada). Doxycycline and polymyxin B were purchased from Sigma-Aldrich (St. Louis, MO, USA).” left out
as §2

[4] = tested on: P. aeruginosa ATCC 27853; experiment: MIC / antibiotic potentiation assay, wild-type strain; details: for Antibiotic MIC in Presence of TXA09155 at a Concentration of 3.13: TXA09155 3.13 μg/mL; for Antibiotic MIC in Presence of TXA09155 at a Concentration of 25: TXA09155 25 μg/mL; for Emax: ratio between MIC without EPI and MIC in the presence of a maximal potentiating concentration of EPI (TXA09155); for antibiotic potentiated by TXA09155 up to x-fold: TXA09155 25 to 3.13 µg/mL
[5] = tested on: P. aeruginosa K2415 (mexXY-oprM overexpressed); experiment: MIC / potentiation assay, strain K2415; assay type: cell-based, Pseudomonas aeruginosa; details: for MIC: Pseudomonas aeruginosa, read-out: MICs K2415 (↑mexXY-oprM)
Description: as §1, §2

[6] = tested on: P. aeruginosa mutants EPIR1S, EPIR9S, EPIR20L, EPIR43; experiment: MIC of antimicrobials in TXA09155-resistant mutants; assay type: cell-based, Pseudomonas aeruginosa
Method: All resistant colonies were verified by determining the MIC to TXA09155. […] This two-component system regulates the expression of more than 100 genes in P. aeruginosa, including genes that code for efflux components (mexX), and plays a role in the resistance to cationic antimicrobial peptides and aminoglycoside antibiotics.
as §2

[7] = Pseudomonas aeruginosa, ATCC27853, read-out: Antibiotic MIC in Presence of TXA09155 at a Concentration of 0
[8] = Pseudomonas aeruginosa, ATCC27853, read-out: MICs, Lack of EPI
[9] = Pseudomonas aeruginosa, strain EPIR1S (phoQ-L175R)
[10] = Pseudomonas aeruginosa, strain EPIR9S (phoQ-L175R)
[11] = Pseudomonas aeruginosa, strain EPIR20L (phoQ-H248D)

| Compound | Antibiotic MIC in Presence of TXA09155 at a Concentration of 3.13 [4] | Antibiotic MIC in Presence of TXA09155 at a Concentration of 25 [4] | Antibiotic MIC in Presence of TXA09155 at a Concentration of 12.5 [4] | Emax [4] | MIC [1] | MIC [2] | MIC [4, 7] | MIC [5] | MIC [6, 9] | MIC [6, 11] | also measured |
| --- | --- | --- | --- | --- | --- | --- | --- | --- | --- | --- | --- |
| Cotrimoxazole | 256 µg/mL | 2 µg/mL | 4 µg/mL | 128 |  |  |  |  |  |  | MICs K1455 (↑mexAB-oprM) ([1]; antibiotic alone): > 256 µg/mL; MICs K767 (WT) [2]: 64 µg/mL; MICs K3698 (∆oprM) ([3]; antibiotic alone): 4 µg/mL; Antibiotic MIC in Presence of TXA09155 at a Concentration of 0 ([4]; TXA09155 0 μg/mL): 256 µg/mL; MICs K2415 (↑mexXY-oprM) ([5]; antibiotic alone): 64 µg/mL |
| C[C@H]1c2cccc(O)c2C(=O)C2=C(O)[C@]3(O)C(=O)C(C(N)=O)=C(O)[C@@H](N(C)C)[C@@H]3[C@@H](O)[C@@H]21 [Doxycycline] | 16 µg/mL |  |  |  | ≥ 256 µg/mL | 32 µg/mL (≈ 72 µM) | 32 µg/mL | 32 µg/mL | 16 µg/mL | 16 µg/mL | MIC [4, 8]: 32 µg/mL; MIC [6, 10]: 16 µg/mL |
| CC(C)(O/N=C(\C(=O)N[C@@H]1C(=O)N2C(C(=O)[O-])=C(C[n+]3ccccc3)CS[C@H]12)c1csc(N)n1)C(=O)O [CAZ, ceftazidime] |  |  |  |  |  |  |  |  | 2 µg/mL | 2 µg/mL | MIC ([4]; ATCC 27853, parent strain): 2 µg/mL |
| CN(C)c1cc(NC(=O)CNC(C)(C)C)c(O)c2c1C[C@H]1C[C@H]3[C@H](N(C)C)C(O)=C(C(N)=O)C(=O)[C@@]3(O)C(O)=C1C2=O [TGC, tigecycline] |  |  |  |  |  |  |  |  | 8 µg/mL | 8 µg/mL | MIC ([4]; ATCC 27853, parent strain): 8 µg/mL |
| O=C(N[C@H](CO)[C@H](O)c1ccc([N+](=O)[O-])cc1)C(Cl)Cl [Chloramphenicol] | >256 µg/mL | 2 µg/mL | 4 µg/mL | >128 | > 256 µg/mL | 128 µg/mL (≈ 396 µM) | > 256 µg/mL | 128 µg/mL |  |  | MIC [3]: 8 µg/mL; MIC [4, 8]: > 256 µg/mL |
| CO/N=C(\C(=O)N[C@@H]1C(=O)N2C(C(=O)[O-])=C(C[n+]3cccc4c3CCC4)CS[C@H]12)c1csc(N)n1 [Cefpirome] | 4 µg/mL | 0.5 µg/mL | 0.5 µg/mL | 16 | 8 µg/mL (≈ 15.5 µM) | 2 µg/mL (≈ 3.89 µM) | 8 µg/mL | 8 µg/mL |  |  | MIC Ratios K1455 (↑mexAB-oprM) ± TXA09155 [1]: 8; MIC Ratios K1455 (↑mexAB-oprM)/K3698 (∆oprM) ([1]; antibiotic alone): 4; MIC [3]: 0.5 µg/mL; MIC Ratios K3698 (∆oprM) ± TXA09155 [3]: 2; antibiotic potentiated by TXA09155 up to x-fold [4]: up to 16 fold; FICindex ([4]; sum of the FICindex of antibiotic and TXA09155, <0.5 synergistic): 0.25; MIC Ratios K2415 (↑mexXY-oprM) ± TXA09155 [5]: 8 |
| polymyxin B [PMB] |  |  |  |  |  |  |  |  |  |  | MIC ([4]; ATCC 27853, parent strain): 2 µg/mL; MIC ([6]; strain EPIR1S (phoQ-L175R)): 4 µg/mL; MIC ([6]; strain EPIR9S (phoQ-L175R)): 2 µg/mL; MIC ([6]; strain EPIR20L (phoQ-H248D)): 4 µg/mL; MIC ([6]; strain EPIR43 (ompH-Q127X)): 4 µg/mL |
| C[C@@H](O)[C@H]1C(=O)N2C(C(=O)O)=C(SCCN=CN)C[C@H]12 [Imipenem] | 2 µg/mL | 2 µg/mL | 2 µg/mL | 1 | 1 µg/mL (≈ 3.34 µM) | 2 µg/mL (≈ 6.68 µM) | 2 µg/mL | 1 µg/mL |  |  | MIC Ratios K1455 (↑mexAB-oprM) ± TXA09155 [1]: 1; MIC Ratios K1455 (↑mexAB-oprM)/K3698 (∆oprM) ([1]; antibiotic alone): 1; MIC [3]: 2 µg/mL; MIC Ratios K3698 (∆oprM) ± TXA09155 [3]: 1; antibiotic potentiated by TXA09155 up to x-fold [4]: not potentiated; MIC Ratios K2415 (↑mexXY-oprM) ± TXA09155 [5]: 1 |
| C[C@H]1[C@H](NC(=O)/C(=N\OC(C)(C)C(=O)O)c2csc(N)n2)C(=O)N1S(=O)(=O)O [Aztreonam] | 4 µg/mL | 0.25 µg/mL |  | 32 |  |  | 8 µg/mL |  |  |  |  |
| CN(C)c1ccc(O)c2c1C[C@H]1C[C@H]3[C@H](N(C)C)C(O)=C(C(N)=O)C(=O)[C@@]3(O)C(O)=C1C2=O [Minocycline] | 16 µg/mL | 0.125 µg/mL | 0.25 µg/mL | 256 | > 256 µg/mL | 64 µg/mL (≈ 140 µM) | 32 µg/mL | 32 µg/mL |  |  | MIC [3]: 1 µg/mL; MIC [4, 8]: 32 µg/mL |
| CC[C@H]1OC(=O)[C@H](C)[C@@H](O[C@H]2C[C@@](C)(OC)[C@@H](O)[C@H](C)O2)[C@H](C)[C@@H](O[C@@H]2O[C@H](C)C[C@H](N(C)C)[C@H]2O)[C@](C)(O)C[C@@H](C)CN(C)[C@H](C)[C@@H](O)[C@]1(C)O [AZM, azithromycin] |  |  |  |  |  |  |  |  | 64 µg/mL | 64 µg/mL | MIC ([4]; ATCC 27853, parent strain): 64 µg/mL |
| C[C@@H](O)[C@H]1C(=O)N2C(C(=O)O)=C(S[C@@H]3CN[C@H](C(=O)N(C)C)C3)[C@H](C)[C@H]12 [MEM, meropenem] |  |  |  |  |  |  |  |  | 2 µg/mL | 2 µg/mL | MIC [6, 10]: 1 µg/mL |
| COc1c(N2C[C@@H]3CCCN[C@@H]3C2)c(F)cc2c(=O)c(C(=O)O)cn(C3CC3)c12 [Moxifloxacin] | 2 µg/mL | 0.016 µg/mL | 0.031 µg/mL |  |  |  | 2 µg/mL |  |  |  | MIC [4, 8]: 2 µg/mL |
| NCC[C@H](O)C(=O)N[C@@H]1C[C@H](N)[C@@H](O[C@H]2O[C@H](CN)[C@@H](O)[C@H](O)[C@H]2O)[C@H](O)[C@H]1O[C@H]1O[C@H](CO)[C@@H](O)[C@H](N)[C@H]1O [AMK, amikacin] |  |  |  |  |  |  |  |  | 8 µg/mL | 8 µg/mL |  |
